# “Also recorded” adds a separate entry of the source.
# How the values were obtained:
# [1] = system: LoVo-OXP colorectal adenocarcinoma xenografts; assay: In vivo anticancer activity, oxaliplatin-resistant colorectal xenograft; set-up: species or system BALB/c nu/nu mice
# Experimental: (§1) LoVo and LoVo-OXP tumor xenografts were established in 6-week-old BALB/c nu/nu mice by injecting 1×10^7 tumor cells subcutaneously (100 μL in serum free medium) on the left dorsal flank. After 24 h from tumor implantation, mice were randomly divided into five groups (6 animals per group, 8 controls). Chemotherapy was delayed until the tumor became palpable (day 14). From day 14, 1 was dosed daily at 3 mg/kg ip whereas OXP was dosed daily at 2 mg/kg ip. Measurements of body weights and tumor volumes were recorded every 2 days until the experimental endpoint. The long axis (L) and the short axis (S) were measured with caliper, and the tumor volume (V) was calculated using the following equation: V=S×S×L/2. At day 30, animals were sacrificed, and the inhibition of tumor growth was determined by comparing the volume of the control group and the treatment group expressed as % referred to the control animals.
# (§2) All the values are the means±S.D. of not less than three measurements. Multiple comparisons were made by Tukey-Kramer test (**p<0.01; *p<0.05).
# [2] = system: LoVo MDR multidrug resistant colon carcinoma subline; assay: MTT cytotoxicity assay, cross-resistance profile; assay type: cell-based, human
# Source text: (§3) Human breast (MCF-7) and colon (HCT-15, DDL1, SW480 and CaCo-2) carcinoma cell lines along with melanoma (A375) were obtained from the American Type Culture Collection (ATCC, Rockville, Md.). A431 are human cervical carcinoma cells kindly provided by Prof. F. Zunino (Molecular Pharmacology Unit, Experimental Oncology and Molecular Medicine, Istituto Nazionale dei Tumori, Milan, Italy). […] G. Marverti (Dept. of Biomedical Science, University of Modena, Italy). LoVo human colon-carcinoma cell line and its multidrug-resistant sublime (LoVo MDR) were kindly provided by Prof F. Maj one (Department of Biology of Padova University, Italy). […] Cell lines were maintained in the logarithmic phase at 37° C. in a 5% carbon dioxide atmosphere using the following culture media containing 10% fetal calf serum (Euroclone, Milan, Italy), antibiotics (50 units mL^−1 penicillin and 50 μg mL^−1 streptomycin), and 2 mM L-glutamine in: i) RPMI-1640 medium (Euroclone) for MCF-7, HCT-15, A431, DLD 1, 2008, and C13* cells; ii) F-12 HAM'S (Sigma Chemical Co.) for LoVo, LoVo MDR, and LoVo-OXP cells; iii) DMEM for A375 and SW 480 cells; and iv) MEM for CaCo-2 cells.
# (§4) The growth inhibitory effect towards tumor cell lines was evaluated by means of the MTT (3-(4,5-dimethylthiazol-2-yl)-2,5-diphenyltetrazolium bromide) assay (Alley, M. C., et al., Cancer Res. 1988, 48, 589-601).
# (§5) Briefly, depending upon the growth characteristics of the cell line, 3-8×10^3 cells well^−1, were seeded in 96-well microplates in growth medium (100 μL) and then incubated at 37° C. in a 5% carbon dioxide atmosphere. After 24 h, the medium was removed and replaced with a fresh one containing the compound to be studied, at the appropriate concentration, dissolved in 0.9% sodium chloride solution just before use. Triplicate cultures were established for each treatment. After 72 h, each well was treated with […] of a 5 mg mL^−1 MTT saline solution and, after 5 h of incubation, 100 μL of a sodium dodecylsulfate (SDS) solution in 0.01 M HCl were added. After an overnight incubation, the inhibition of cell growth induced by the tested complexes was determined by measuring the absorbance of each well at 570 nm using a BioRad 680 microplate reader. Mean absorbance for each drug dose was expressed as percentage of the control and plotted vs. drug concentration. Dose-response curves were fitted and IC50 values were calculated with four parameter logistic model (4PL).
# (§6) A LoVo cell line retaining a multidrug resistance phenotype was also considered (LoVo MDR). Cross-resistance profiles were evaluated by means of the resistance factor (RF), which is defined as the ratio between the IC50 value for the resistant cells and that arising from the sensitive cells (Table 2).
# In Table 2 are also reported the results obtained in a multidrug resistant (MDR) colon carcinoma subline, LoVo MDR, in which the resistance to doxorubicin, a drug belonging to the MDR spectrum, is associated with an overexpression of multi-specific drug transporters, such as the 170 kDa P-glycoprotein (P-gp) (Wersinger, C., et al., Amino Acids 2000, 19, 667-685). It is well known that acquired MDR, whereby cells become refractory to multiple drugs, poses most important challenge to the success of anticancer chemotherapy.
# [3] = system: LoVo-OXP cells; assay: Cellular platinum uptake by GF-AAS; assay type: cell-based, human; conditions: LoVo-OXP resistant cells, 5 μM, 6, 24, 48 h, FIG. 2 panel B, compared with LoVo
# Experimental: LoVo and LoVo-OXP cells (2×10^6) were seeded in 75 cm^2 flasks in growth medium (20 ml). After 24 h, the medium was replaced and the cells incubated for different times (6, 24 or 48 h) in the presence of the tested complexes. Cell monolayers were washed twice with cold PBS and harvested. Samples were subjected to three freezing/thawing cycles at −80° C., and then vigorously vortexed. Aliquots were removed for the determination of protein content by the BioRad protein assay (BioRad). The samples were treated with 1 mL of highly pure nitric acid (Pt: ≦0.01 μg×kg^−1, TraceSELECT® Ultra, Sigma Chemical Co.) and transferred into a microwave teflon vessel. Subsequently, samples were submitted to a standard procedure using a speed wave MWS-3 Berghof instrument (Eningen, Germany). After cooling, each mineralized sample was analyzed for platinum by using a Varian AA Duo graphite furnace atomic absorption spectrometer (Varian, Palo Alto, Calif.; USA) at the wavelength of […]. The calibration curve was obtained using known concentrations of standard solutions purchased from Sigma Chemical Co.
# It is well-known that cellular uptake is an important factor influencing drug efficacy. […] The intracellular platinum was quantified by means of GF-AAS analysis and the results, expressed as μg metal mg^−1 of cellular proteins, are summarized in FIG. 2.
# [4] = system: LoVo colorectal adenocarcinoma xenografts; assay: In vivo anticancer activity, oxaliplatin-sensitive colorectal xenograft; set-up: species or system BALB/c nu/nu mice; conditions: LoVo xenograft; daily ip day 14 to day 30; 1 at 3 mg/kg, OXP at 2 mg/kg; tumor volume at day 30
# Experimental: as §1, §2
# [5] = system: C13* cisplatin resistant ovarian cancer cells; assay: MTT cytotoxicity assay, cross-resistance profile; assay type: cell-based, human; conditions: for R.F. (resistance factor): IC50 C13* / IC50 2008, cross-resistance with cisplatin
# Source text: as §3, §4, §5, §6
# [6] = system: LoVo-OXP oxaliplatin resistant colon cancer cells; assay: MTT cytotoxicity assay, cross-resistance profile; assay type: cell-based, human; conditions: for R.F. (resistance factor): IC50 LoVo-OXP / IC50 LoVo, cross-resistance with oxaliplatin
# Source text: as §3, §4, §5, §6
# [7] = system: 2008 ovarian cancer cells; assay: MTT cytotoxicity assay, cross-resistance profile; assay type: cell-based, human; conditions: 72 h
# Source text: as §3, §4, §5, §6
compound,measurement,setting,value
"O=C1[O][Pt-2]2([NH2+]C3CCCC[C@H]3[NH2+]2)[O]C1=O (stereo partly drawn) [oxaliplatin, [(1R,2R)-cyclohexane-1,2diamine](ethanedioato)platinum(II), reference compound]","antitumor activity, times lower than that exerted by 1",[1]; LoVo-OXP models,2.4
same,tumor growth inhibition,"[1]; LoVo-OXP xenograft, daily ip day 14 to day 30, 1 at 3 mg/kg, OXP at 2 mg/kg, tumor volume at day 30",24%
same,R.F. (resistance factor),[2]; IC50 LoVo-MDR / IC50 LoVo,1.3
same,IC50,"[2]; LoVo-MDR, 72 h, MTT",1.36 ± 0.81 µM
same,intracellular platinum accumulation,[3],remarkably decreased; also recorded: decreases remarkably
same,tumor growth inhibition,[4],54%
same,IC50,"[5]; C13*, 72 h, MTT",3.33 ± 1.84 µM
same,R.F. (resistance factor),[5],2.0
same,R.F. (resistance factor),[5]; listed as OXP,2
same,R.F. (resistance factor),[6],17
same,R.F. (resistance factor),[6]; listed as OXP,17
same,IC50,"[6]; LoVo-OXP, 72 h, MTT",17.5 ± 1.79 µM
same,IC50,[7],1.65 ± 1.01 µM
